Laboratory results published in US6617450B1, “P-glycoproteins and uses thereof” (Becton Dickinson and Company, priority 1999, dated 2003).

Tested on: cynomologous monkey PGP
Experiment: Polarization of vinblastine transport across cynomologous monkey PGP transfected LLC-PK1 cell monolayers in Transwells
Format: cell-based, cynomologous monkey (Macaca fascicularis)
Details: PGP transfected cells, relative to control cells; vinblastine (0.1 μM) transport in Transwells
Description: Cynomologous monkey PGP cDNA (SEQ ID NO:3) is introduced into a clonal population of LLC-PK 1 cells in a vector that confers resistance to hygromycin B. LLC-PK1 cells are obtained from the American Type Culture Collections and are propagated in Medium 199 supplemented to 7% with fetal bovine serum. LLC-PK1 cells are recloned prior to transfection in order to assure homogeneity of the cell population. Briefly, cynomologous monkey PGP cDNA is incorporated into the p222CMV vector. […] The PGP cDNA is under the control of the cytomegalovirus (CMV) immediate early promoter. […] Expression of PGP is measured by the polarization of vinblastine (0.1 μM) transport in Transwells™.
LLC-PK1 cell based transport studies are conducted in 24 well Transwells™(Corning Costar, Catalog number 3415). […] Transport is measured under sink conditions in both the apical to basolateral (A to B) and basolateral to apical (B to A) directions. […] Quantitation of the amount of compound transported is by liquid scintillation counting (vinblastine) or HPLC with UV or mass spectrometric detection.
Functional expression of cynomologous monkey PGP is measured by the polarization of transport of vinblastine.

B to A/A to B ratio: much higher ratio
SMILES: CC[C@]1(O)C[C@@H]2CN(CCc3c([nH]c4ccccc34)[C@@](C(=O)OC)(c3cc4c(cc3OC)N(C)[C@H]3[C@@](O)(C(=O)OC)[C@H](OC(C)=O)[C@]5(CC)C=CCN6CC[C@]43[C@@H]65)C2)C1 [vinblastine]
